The values that follow come from patent US20130197189A1, “Method For Synthesizing A Cyclic Multivalent Peptide Using A Thiol-Mediated Reaction” (The Regents of the University of Colorado, A Body Corporate, priority 2010, published 2013).

One assay addresses T1, GPIIb/IIIa (Homo sapiens, UniProt P05106+P08514).
T1 construct: purchased Enzyme Research Laboratories (South Bend, Ind.)
T1 sequence (P08514 32-887 limits assumed): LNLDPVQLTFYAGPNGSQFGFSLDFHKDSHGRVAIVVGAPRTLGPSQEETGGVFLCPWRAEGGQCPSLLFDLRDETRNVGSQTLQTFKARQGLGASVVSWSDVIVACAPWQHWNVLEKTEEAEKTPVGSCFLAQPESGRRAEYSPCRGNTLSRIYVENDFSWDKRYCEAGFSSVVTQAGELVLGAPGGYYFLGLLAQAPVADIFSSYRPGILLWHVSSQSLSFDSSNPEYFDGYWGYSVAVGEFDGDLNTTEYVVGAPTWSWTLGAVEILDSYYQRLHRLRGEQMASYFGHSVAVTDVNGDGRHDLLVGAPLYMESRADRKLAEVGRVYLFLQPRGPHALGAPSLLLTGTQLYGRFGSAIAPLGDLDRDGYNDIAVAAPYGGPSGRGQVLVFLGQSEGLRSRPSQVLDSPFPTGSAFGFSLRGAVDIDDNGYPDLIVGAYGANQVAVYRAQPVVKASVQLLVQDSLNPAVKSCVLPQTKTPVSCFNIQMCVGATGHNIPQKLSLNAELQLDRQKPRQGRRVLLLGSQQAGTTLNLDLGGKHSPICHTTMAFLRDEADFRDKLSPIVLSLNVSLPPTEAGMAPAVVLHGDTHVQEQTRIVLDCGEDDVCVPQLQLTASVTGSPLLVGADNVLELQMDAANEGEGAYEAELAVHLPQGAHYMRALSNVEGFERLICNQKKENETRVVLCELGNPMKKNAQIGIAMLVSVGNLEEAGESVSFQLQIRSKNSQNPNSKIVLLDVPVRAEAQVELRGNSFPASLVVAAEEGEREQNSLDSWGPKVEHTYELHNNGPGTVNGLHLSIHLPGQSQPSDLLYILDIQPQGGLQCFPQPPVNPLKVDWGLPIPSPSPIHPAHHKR
T1 sequence (P05106 27-788): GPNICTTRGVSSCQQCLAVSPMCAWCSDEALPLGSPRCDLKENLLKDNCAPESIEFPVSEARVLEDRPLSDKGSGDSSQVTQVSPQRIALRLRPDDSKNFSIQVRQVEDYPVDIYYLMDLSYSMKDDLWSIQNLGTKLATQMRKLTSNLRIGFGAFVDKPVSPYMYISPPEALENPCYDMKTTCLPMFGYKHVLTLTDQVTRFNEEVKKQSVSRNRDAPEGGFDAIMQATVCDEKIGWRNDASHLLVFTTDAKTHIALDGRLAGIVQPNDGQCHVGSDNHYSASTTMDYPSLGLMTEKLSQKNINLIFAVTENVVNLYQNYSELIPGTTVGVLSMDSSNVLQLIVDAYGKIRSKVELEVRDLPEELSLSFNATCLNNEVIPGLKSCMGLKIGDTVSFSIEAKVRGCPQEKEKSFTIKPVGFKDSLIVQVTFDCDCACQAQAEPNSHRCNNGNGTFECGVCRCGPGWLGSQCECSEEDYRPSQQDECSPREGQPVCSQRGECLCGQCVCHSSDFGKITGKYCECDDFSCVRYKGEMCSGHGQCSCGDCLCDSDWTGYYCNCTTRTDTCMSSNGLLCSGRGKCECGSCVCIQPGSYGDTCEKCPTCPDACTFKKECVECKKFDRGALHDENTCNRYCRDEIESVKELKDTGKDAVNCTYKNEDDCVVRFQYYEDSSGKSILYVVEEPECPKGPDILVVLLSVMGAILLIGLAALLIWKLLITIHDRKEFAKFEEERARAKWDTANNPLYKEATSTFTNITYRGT
The assay is described as follows: Fibrinogen binding ELISA (competitive binding ELISA: inhibition of fibrinogen binding to GPIIb/IIIa). The protocol: A 96-well Maxisorp plate (Nunc) was coated with GPIIb/IIIa (10 μg mL^−1, 100 μL) and incubated at 4° C. overnight. The plate was washed (5×) with buffer (50 mM Tris-HCl, 100 mM NaCl, 2 mM CaCl2, 0.05% Tween20, pH 7.4). Blocking solution (3.5% BSA, 100 μL) was added to the well and incubated at 37° C. for 3 hours. The plate was washed (5×) with buffer. Peptides (50 μL) and fibrinogen (40nM, 50 μL) were added to the plate and incubated at room temperature for 3 hours. The plate was washed (5×) and antibody (goat polyclonal to fibrinogen (HRP), 1:20,000 dilution, 100 μL) was added to the plate and incubated for 1 hour at room temperature. The plate was washed (5×) and substrate (2,2′-azino-bis(3-ethylbenzthiazoline-6-sulphonic acid, ABTS, 100 μL) was added to the wells and allowed to react for 5 minutes. The absorbance was measured (Perkin Elmer Wallac Victor2 1420 Multilabel Counter) at 405 nm. The data was analyzed using Graphpad Prism 5.
Glycoprotein Iib-IIIa (GPIIb/IIIa) is present on platelets and its binding to fibrinogen has been associated with platelet aggregation.
A competitive binding ELISA was used to determine the potency of the multivalent RGD peptides. GPIIb/IIIa is known to contain the integrins αIIβ and β3, which bind RGD peptide sequences. Fibrinogen is also known to bind to these integrins. The ELISA was performed to quantitate the inhibition of bound fibrinogen in the presence of RGD peptide. The ELISA was performed as described previously.4 Briefly, GPIIb/IIIa was incubated in a 96 well Maxisorp plate (Nunc) (10 μg ml^−1) overnight at 4° C. The plate was blocked for non-specific interactions using BSA (3.5 wt%, 3 hr). Varying peptides concentrations and fibrinogen (40 nM) was incubated in the plate for 3 hr at room temperature. Fibrinogen antibody (HRP) (1:20,000 dilution) as added (1 hr). The substrate (2,2′-Azinobis[3-ethylbenzothiazoline-6-sulfonic acid]-diammonium salt-ABTS) was added and the absorbance measured at 405 nm. Peptide concentrations are reported as total molecule molarity as opposed to normalized [RGD].
On the technique in general: An ELISA detects its analyte on a solid surface through an enzyme-linked reagent.

The next assay has as its system MIN6 cells. The assay is described as follows: MIN6 cells encapsulated in PEG diacrylate gels with RGD, metabolic activity by Alamar Blue assay. In kind it is cell-based. To be noted: FIG. 19; for MIN6 viability / cell survival: 100 μM RGD in PEG gel, 10-day study. From the text:
To test whether cyclic RGD, when encapsulated in PEG gels may enhance the survival of MIN6 cells, cyclic RGD was incorporated into PEG gels and applied to cell cultures of MIN6 cells. A cyclic RGD dimer was synthesized on-resin using Traut's reagent. The dimer contained a free thiol, which could be utilized for conjugation into PEG networks via thiol-acrylate photopolymerizations.
To examine whether the cyclic RGD derivatives could enhance cell viability, MIN6 cells were encapsulated at a relatively low density (5×10^6 cells mL^−1, data not published) in PEG diacrylate gels with varying amounts of RGD. Cell metabolic activity was measured using an Alamar Blue assay. […] Total molar RGD concentration was held constant during the study.

Where two headings read alike, the source gives them in different places. *1 amine or outer side, *2 acyl side, *3 side chain or, on linkers, in order; H or OH if unused. Where a SMILES comes first, the peptide text is derived from it. Bridges are numbered along the chain shown (N, C = ends). [ ]: non-standard residue; d: D form. X2 = O=C(C1CC2CC1C([*:1])C2)[*:2]; X1 = O=C(OCCC[*:1])[*:2]

Take `CC(=O)N[C@H]1CSC2CC3CC(C(=O)NCCCC[C@@H](C(N)=O)NC(=O)[C@@H](Cc4ccccc4)NC(=O)[C@H](CO)NC(=O)[C@H](CC(=O)O)NC(=O)CNC(=O)[C@H](CCCNC(=N)N)NC1=O)C2C3` (stereo partly shown) [Ac-c[CRGDSfK(Norbornene)]-NH2] (Ac-CRGDS[dF]K-NH2; linker 1-7 via X2): at GPIIb/IIIa, the IC50 came out at 0.36 ± 0.09 µM.
As for `N=C(N)NCCC[C@@H]1NC(=O)[C@@H](NC(=O)CNC(=O)CNC(=O)[C@@H](N)CS)CSCCCOC(=O)NCCCC[C@@H](C(N)=O)NC(=O)[C@@H](Cc2ccccc2)NC(=O)[C@H](CO)NC(=O)[C@H](CC(=O)O)NC(=O)CNC1=O` [Compound #2, H-CGGc[CRGDSfK(Alloc)]-NH2] (H-CGGCRGDS[dF]K-NH2; linker 4-10 via X1), at GPIIb/IIIa (competitive binding ELISA), the “potency relative to linear RGD (compound #1)” value was “enhanced potency”. In the assay on MIN6 cells, the “MIN6 viability / cell survival” value is given as “increased viability”. Also, in the assay on MIN6 cells (400 μM RGD in PEG gel, 5×10^6 cells mL^−1), the “MIN6 metabolic activity relative to linear counterpart at the same concentration” value is “significantly enhanced metabolic activity”.
In turn, `N=C(N)NCCC[C@@H]1NC(=O)[C@@H](NC(=O)CNC(=O)CNC(=O)[C@@H](N)CSCC(CCC(=O)NCCCC[C@H](NC(=O)CN)C(=O)NCC(=O)NCCCCCC(=O)NCC(=O)N[C@@H](CCCCNC(=O)CCC(CSC[C@H](N)C(=O)NCC(=O)NCC(=O)N[C@H]2CSCCCOC(=O)NCCCC[C@@H](C(N)=O)NC(=O)[C@@H](Cc3ccccc3)NC(=O)[C@H](CO)NC(=O)[C@H](CC(=O)O)NC(=O)CNC(=O)[C@H](CCCNC(=N)N)NC2=O)SC[C@H](N)C(=O)NCC(=O)NCC(=O)N[C@H]2CSCCCOC(=O)NCCCC[C@@H](C(N)=O)NC(=O)[C@@H](Cc3ccccc3)NC(=O)[C@H](CO)NC(=O)[C@H](CC(=O)O)NC(=O)CNC(=O)[C@H](CCCNC(=N)N)NC2=O)C(=O)NCC(N)=O)SC[C@H](N)C(=O)NCC(=O)NCC(=O)N[C@H]2CSCCCOC(=O)NCCCC[C@@H](C(N)=O)NC(=O)[C@@H](Cc3ccccc3)NC(=O)[C@H](CO)NC(=O)[C@H](CC(=O)O)NC(=O)CNC(=O)[C@H](CCCNC(=N)N)NC2=O)CSCCCOC(=O)NCCCC[C@@H](C(N)=O)NC(=O)[C@@H](Cc2ccccc2)NC(=O)[C@H](CO)NC(=O)[C@H](CC(=O)O)NC(=O)CNC1=O` (stereo partly shown) [Compound #7] came in with an IC50 on GPIIb/IIIa of 0.012 ± 0.003 µM.
Turning to “H-CGGRGDS-NH2 [Compound #1, H-CGGRGDS-NH2]”, on GPIIb/IIIa (Table 2, mean ± SEM, triplicate, repeated twice, peptide concentration as total molecule molarity, not normalized [RGD], read-out: IC50(μM), inhibition of fibrinogen binding to GPIIb/IIIa), the IC50 is 15.4 ± 4.2 µM. In the assay with MIN6 cells, the “MIN6 viability / cell survival” value is “not able to support cell survival”.
